Measurements as given in ChEMBL document CHEMBL3739425, “Exploring cinnamic acid scaffold: development of promising neuroprotective lipophilic antioxidants” (Medchemcomm, 2015).
Activity calls are given as the source filed them. The calls are words filed in the database; no cut-off is given here.

Legend:
[1] = Antioxidant activity assessed as DPPH radical scavenging activity measured every minute over 45 mins by spectrophotometry; format: physicochemical
[2] = Antioxidant activity assessed as ABTS radical scavenging activity by spectrophotometry; format: physicochemical
[3] = Antioxidant activity assessed as galvinoxyl radical scavenging activity measured over 30 mins by spectrophotometry; format: physicochemical
[4] = Iron chelation activity of compound assessed as [Fe(ferrozine)3]2+ complex formation by spectrophotometry; format: physicochemical
SH-SY5Y [5] = test: Cytotoxicity against human SH-SY5Y cells at 1 and 10 uM after 24 hrs by MTT assay; format: cell-based
SH-SY5Y [6] = test: Neuroprotective activity in human SH-SY5Y cells assessed as inhibition of 6-OH-DA-induced cytotoxicity at 1 uM compound incubated for 1 hr followed by 24 hrs incubation with 100 uM 6-OH-DA by MTT assay; format: functional, cell-based
SH-SY5Y [7] = test: Neuroprotective activity in human SH-SY5Y cells assessed as inhibition of 6-OH-DA-induced cytotoxicity at 10 uM compound incubated for 1 hr followed by 24 hrs incubation with 100 uM 6-OH-DA by MTT assay; format: functional, cell-based

**Q.** Which IC50 [1] does the source give for `COc1cc(/C=C/C(=O)O)ccc1O` [FERULATE] here?
**A.** 49.3 µM

**Q.** What about the IC50 [2] of the same compound?
**A.** 23.9 µM

**Q.** And the IC50 [3]?
**A.** 26.5 µM

**Q.** With `O=C(O)/C=C/C=C/c1ccc(O)c(O)c1` [DEMETHYLENATED PIPERIC ACID] as the compound, how does the IC50 [1] read?
**A.** 18.2 µM

**Q.** What about the IC50 [2] of the same compound?
**A.** 11.1 µM

**Q.** What about the IC50 [3] of the same compound?
**A.** 2.5 µM

**Q.** What about the Activity [4] of the same compound?
**A.** Active

**Q.** What about the Activity (SH-SY5Y [5]) of the same compound?
**A.** Non-toxic

**Q.** What about the inhibition (SH-SY5Y [6]) of the same compound?
**A.** Active

**Q.** What about the inhibition (SH-SY5Y [7]) of the same compound?
**A.** Active

**Q.** Which IC50 [1] does the source give for `O=C(O)/C=C/c1ccc(O)c(O)c1` [CAFFEIC ACID] here?
**A.** 21.7 µM

**Q.** And the IC50 [2]?
**A.** 17.5 µM

**Q.** What about the IC50 [3] of the same compound?
**A.** 27 µM

**Q.** And the Activity [4]?
**A.** Active

**Q.** Which results are given for `Cc1c(C)c2c(c(C)c1O)CCC(C)(C(=O)O)O2` (racemic) [TROLOX]?
**A.** IC50 [1]: 30.8 µM; IC50 [2]: 2.8 µM; IC50 [3]: 3.4 µM

**Q.** For `COc1ccc(/C=C/C=C/C(=O)O)cc1OC`, which IC50 [1] is on record?
**A.** > 75 µM

**Q.** What about the IC50 [2] of the same compound?
**A.** > 50 µM

**Q.** What about the Activity (SH-SY5Y [5]) of the same compound?
**A.** Non-toxic

**Q.** What about the inhibition (SH-SY5Y [6]) of the same compound?
**A.** inactive

**Q.** What about the inhibition (SH-SY5Y [7]) of the same compound?
**A.** inactive

**Q.** With `COc1cc(/C=C/C=C/C(=O)O)ccc1O` as the compound, how does the IC50 [1] read?
**A.** 42.5 µM

**Q.** And the IC50 [2]?
**A.** 19.7 µM

**Q.** And the IC50 [3]?
**A.** 4.8 µM

**Q.** What about the Activity (SH-SY5Y [5]) of the same compound?
**A.** Non-toxic

**Q.** And the inhibition (SH-SY5Y [7])?
**A.** Active
